Read-outs that look alike come from different tables or passages of the source. Marks after values point to notes of the source that are not given here.
What was measured:
[1] = tested on: Enterobacteriaceae; format: cell-based
Method: Materials and Method. Naturally contaminated layer feed was collected, ground, and mixed well prior to weighing. The ground feed was weighed and separated into 15 different bags, each containing 300 g. The product/prototype was accurately weighed at the needed dosage and adjusted to a total volume of 5 mL prior to adding into the 300 g of feed with a syringe and needle. Product/prototype was added in batches (i.e., 2, 2, and 1 mL separately) and mixed after each addition. Five mL of sterile water was added into the feed and served as the control. The treated feed samples were homogenized after treatment and kept at 25° C. until the day of enumeration.
TEC of the 15 samples were studied over a period of 22 days with enumeration interval at time points 0, 1 and 22 days. The effect of peroxy acid was neutralized at each time point prior to enumeration. At each time point, 20 mL of 0.1 M sodium thiosulphate was added into 10 g of each treated feed sample in a sterile bag. The mixture was mixed well and left to stand for 10 minutes. After 10 minutes, 70 mL of BPW was added to achieve 10^−1 dilution. The feed suspension was homogenously mixed and left to stand for 30 minutes. Subsequently, the feed suspension was serial diluted to appropriate dilutions for enumeration. 100 uL of the diluted samples were plated onto Violet Red Bile Glucose (VRBG; CM0485 from Oxoid) agar, prepared as per recommended by the supplier. An aliquot of 0.1 mL of the feed suspension was plated onto the agar at each dilution and incubated at 37° C. for 18-24 hours prior to enumeration. Plating was carried out in triplicates. If low TEC is expected, the sample size is increased to 1 mL by plating 300, 300 and 400 uL onto three plates in triplicates for lower detection limit (10 CFU/g). The diluted feed samples (at 10^−1 dilution factor) were kept at 37° C. for 18-24 hours for enrichment prior to streaking. A loopful of diluted feed suspension was streaked onto the VRBG agar and incubated at 37° C. for 18-24 hours to determine qualitatively the presence of Enterobacteriaceae for samples with undetectable TEC.

[2] = tested on: Salmonella enteriditis ATCC 13076; test: DNA interaction Assay 2: treatment added to cells followed by extraction; format: cell-based; conditions: 1 kg/T; two hours at 37° C.; n = 3
Method: Method (Assay 1: Treatment added to extracted DNA directly). One mL of cell suspension (ca. 10^8 cfu/mL in TSBYE) was harvested by centrifugation at 5000 rcf for 10 minutes. The supernatant was discarded and resuspended as detailed in the protocol provided by the supplier. DNA was extracted using the QIAamp DNA Mini kit (Cat #51304, Qiagen). The samples were incubated at 56° C. for two hours and eluted with 200 uL of nuclease-free water. The same eluent was run through the column twice to increase the DNA concentration. Extracted DNA was quantified using Quant-iT dsDNA high-sensitivity assay kit (Q33120; Thermo Fischer Scientific). Extracted DNA was subsequently treated with the different treatment groups with a final concentration of 1 kg/T (prepared in 10 mM PBS). 1.5 uL of treatment solution (prepared at 10 times higher concentration) is added to 13.5 uL of extracted DNA. The solution was mixed well and left to stand at room temperature for one hour. After one hour, the solution was diluted with nuclease-free water 10 times. DNA was subsequently quantified using Quant-iT dsDNA high-sensitivity assay kit (Q33120; Thermo Fischer Scientific). Method (Assay 2: Treatment added to cells followed by extraction). […] Extracted DNA was quantified using Quant-iT dsDNA high-sensitivity assay kit (Q33120; Thermo Fischer Scientific). […]

[3] = Stability of PPA in various diluent (peroxy value by titrimetry); format: physicochemical
Method: Stability of PPA in various diluent. In a separate study, the peroxy value of the mixture was estimated using the titrimetry procedure in 10 minutes and after 4 h of preparing the PPA solution with different diluents.
The peroxy acid value of PPA, when diluted with different diluents, is summarized below in Table 12.

[4] = Degradation of PPA in diluted/Opticurb solutions with mild steel; format: physicochemical; conditions: in contact with mild steel
Method: Degradation of PPA in diluted/Opticurb solutions with mild steel. In another study, the solution of PPA with different diluents was measured for the peroxyacid content initially and after 1 h of immersing the […] to test the PPA degradation rate.

[5] = 2.5% ammonium hydroxide, after 10 minutes
[6] = 2.5% ammonium hydroxide, after 240 minutes
[7] = 5% sodium hydroxide, after 10 minutes
[8] = 5% sodium hydroxide, after 240 minutes
[9] = Deionized Water, after 10 minutes
[10] = Deionized Water, after 240 minutes
[11] = Sodium phosphate buffer, after 10 minutes
[12] = Sodium phosphate buffer, after 240 minutes
[13] = 2.5% ammonium hydroxide, after 15 minutes
[14] = 2.5% ammonium hydroxide, after 60 minutes
[15] = 5% sodium hydroxide, after 15 minutes
[16] = 5% sodium hydroxide, after 60 minutes
[17] = Sodium phosphate buffer, after 15 minutes
[18] = Sodium phosphate buffer, after 60 minutes

Work on CCC(=O)OO [Perpropionic acid, perpropionic acid] yielded a TEC ([1]; 2.5 kg/ton, post treatment Day 1) of 2.41 log CFU/g, a TEC ([1]; 2.5 kg/ton, post treatment Day 22) of less than 1.00 log CFU/g and a TEC ([1]; 2.5 kg/ton, pre-treatment Day 0) of 2.12 log CFU/g. It also gave a TEC ([1]; 5.0 kg/ton, post treatment Day 1) of 2.47 log CFU/g, a TEC ([1]; 5.0 kg/ton, post treatment Day 22) of 1.73 log CFU/g and a TEC ([1]; 5.0 kg/ton, pre-treatment Day 0) of less than 2.00 log CFU/g. It also gave a TEC ([1]; 10.0 kg/ton, post treatment Day 1) of 2.19 log CFU/g, a TEC ([1]; 10.0 kg/ton, post treatment Day 22) of less than 1.00 log CFU/g and a TEC ([1]; 10.0 kg/ton, pre-treatment Day 0) of less than 2.00 log CFU/g. For the same compound, the “DNA concentration, Average ± SD, Assay 2” value [2] was 34.97 ± 4.54^a ng/uL, the pH ([3]; 2 g PPA + 8 g 2.5% ammonium hydroxide) was 6.11 and the pH ([3]; 2 g PPA + 8 g 5% sodium hydroxide) was 5.44. The pH ([3]; 2 g PPA + 8 g Deionized Water) was 1.77, the pH ([3]; 2 g PPA + 8 g Sodium phosphate buffer) was 5.34 and the “H2O2 (%)” value [3, 5] was 1.85%. For the same compound, the “PPA (%)” value [3, 5] was 4.18%, the “H2O2 (%)” value [3, 6] was 2.34% and the “PPA (%)” value [3, 6] was 3.31%. For the same compound, the “H2O2 (%)” value [3, 7] was 1.47%, the “PPA (%)” value [3, 7] was 4.4% and the “H2O2 (%)” value [3, 8] was 1.12%. For the same compound, the “PPA (%)” value [3, 8] was 2.55%, the “H2O2 (%)” value [3, 9] was 1.85% and the “PPA (%)” value [3, 9] was 5.54%. For the same compound, the “H2O2 (%)” value [3, 10] was 1.96%, the “PPA (%)” value [3, 10] was 4.75% and the “H2O2 (%)” value [3, 11] was 1.92%. For the same compound, the “PPA (%)” value [3, 11] was 5.82%, the “H2O2 (%)” value [3, 12] was 1.88% and the “PPA (%)” value [3, 12] was 5.19%. The PPA degradation/min ([4]; 2.5% ammonium hydroxide) was 1.10%, the “H2O2 (%)” value [4, 13] was 0.77% and the “PPA (%)” value [4, 13] was 2.03%. The “H2O2 (%)” value [4, 14] was 0.44%, the “PPA (%)” value [4, 14] was 0.97% and the PPA degradation/min ([4]; 5% sodium hydroxide) was 1.16%. The “H2O2 (%)” value [4, 15] was 0.9%, the “PPA (%)” value [4, 15] was 2.93% and the “H2O2 (%)” value [4, 16] was 0.37%. The “PPA (%)” value [4, 16] was 1.48%, the “H2O2 (%)” value [4, 17] was 1.67% and the “PPA (%)” value [4, 17] was 5.27%. The “H2O2 (%)” value [4, 18] was 1.6%, the “PPA (%)” value [4, 18] was 4.67% and the “PPA degradation after an hour” value ([4]; ammonium hydroxide (2.5% wt)) was 50%. The “PPA degradation after an hour” value ([4]; sodium hydroxide (5% wt.)) was 52%, the “PPA degradation after an hour” value ([4]; sodium phosphate buffer) was roughly 11% and the PPA degradation/min ([4]; sodium phosphate buffer) was 0.25%.

From US20250008983A1, “COMPOSITIONS CONTAINING PEROXYACIDS TO CONTROL PATHOGEN GROWTH IN ANIMAL FEED AND RELATED METHODS” (KEMIN INDUSTRIES, INC., priority 2023, published 2025)
